Assay results reported in PubChem BioAssay (NCI).
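Compound exposure: 48 hours, 5 concentrations, 96-well plates. Abbreviation: GI50, concentration required for 50% inhibition of growth. At the TGI there is no net growth.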

Key:
Assay in all cases: NCI anticancer screen, dose series, 48 h
COLO 205 colon = tested on: COLO 205 colon
MDA-MB-435 = tested on: MDA-MB-435
HL-60(TB) leukemia = tested on: HL-60(TB) leukemia
T-47D breast = tested on: T-47D breast
SK-MEL-5 melanoma = tested on: SK-MEL-5 melanoma
A498 renal = tested on: A498 renal
NCI-H522 lung = tested on: NCI-H522 lung
UO-31 renal = tested on: UO-31 renal
NCI/ADR-RES ovarian = tested on: NCI/ADR-RES ovarian
MCF7 breast = tested on: MCF7 breast
OVCAR-3 ovarian = tested on: OVCAR-3 ovarian
UACC-62 melanoma = tested on: UACC-62 melanoma
786-0 renal = tested on: 786-0 renal
K-562 leukemia = tested on: K-562 leukemia
SN12C renal = tested on: SN12C renal
SK-OV-3 ovarian = tested on: SK-OV-3 ovarian
CCRF-CEM leukemia = tested on: CCRF-CEM leukemia
SNB-75 CNS = tested on: SNB-75 CNS
PC-3 prostate = tested on: PC-3 prostate
HOP-62 NSCLC = tested on: HOP-62 NSCLC
NCI-H460 lung = tested on: NCI-H460 lung
HOP-92 NSCLC = tested on: HOP-92 NSCLC
HCC-2998 colon = tested on: HCC-2998 colon
RXF 393 renal = tested on: RXF 393 renal
DU-145 prostate = tested on: DU-145 prostate
MOLT-4 leukemia = tested on: MOLT-4 leukemia
A549 NSCLC = tested on: A549 NSCLC
NCI-H226 lung = tested on: NCI-H226 lung
SF-539 CNS = tested on: SF-539 CNS
MALME-3M melanoma = tested on: MALME-3M melanoma
NCI-H23 lung = tested on: NCI-H23 lung
TK-10 renal = tested on: TK-10 renal
HCT-15 colon = tested on: HCT-15 colon
HS 578T breast = tested on: HS 578T breast
IGROV1 ovarian = tested on: IGROV1 ovarian
OVCAR-5 ovarian = tested on: OVCAR-5 ovarian
CAKI-1 renal = tested on: CAKI-1 renal
RPMI-8226 leukemia = tested on: RPMI-8226 leukemia
HT29 colon = tested on: HT29 colon
MDA-MB-231 breast = tested on: MDA-MB-231 breast
SR leukemia = tested on: SR leukemia
SF-268 CNS = tested on: SF-268 CNS
EKVX NSCLC = tested on: EKVX NSCLC
HCT-116 colon = tested on: HCT-116 colon
M14 melanoma = tested on: M14 melanoma
UACC-257 melanoma = tested on: UACC-257 melanoma
SK-MEL-2 melanoma = tested on: SK-MEL-2 melanoma
SNB-19 CNS = tested on: SNB-19 CNS
SW-620 colon = tested on: SW-620 colon
ACHN renal = tested on: ACHN renal
OVCAR-4 ovarian = tested on: OVCAR-4 ovarian
KM12 colon = tested on: KM12 colon
SF-295 CNS = tested on: SF-295 CNS
LOX IMVI melanoma = tested on: LOX IMVI melanoma
SK-MEL-28 melanoma = tested on: SK-MEL-28 melanoma
U251 CNS = tested on: U251 CNS
OVCAR-8 ovarian = tested on: OVCAR-8 ovarian

Oc1ccc(Nc2ccc3ccccc3c2)cc1
GI50 (COLO 205 colon): 17.5 µM | TGI (COLO 205 colon): 35.4 µM | GI50 (MDA-MB-435): 3.27 µM | TGI (MDA-MB-435): 14 µM | GI50 (HL-60(TB) leukemia): 2.66 µM | TGI (HL-60(TB) leukemia): 21.3 µM | GI50 (T-47D breast): 7.1 µM | TGI (T-47D breast): 25.7 µM | GI50 (SK-MEL-5 melanoma): 3.11 µM | TGI (SK-MEL-5 melanoma): 11.2 µM | GI50 (A498 renal): 4.1 µM | TGI (A498 renal): 23.2 µM | GI50 (NCI-H522 lung): 8.99 µM | TGI (NCI-H522 lung): 27.7 µM | GI50 (UO-31 renal): 1.6 µM | TGI (UO-31 renal): 9.49 µM | GI50 (NCI/ADR-RES ovarian): 4.4 µM | TGI (NCI/ADR-RES ovarian): 67 µM | GI50 (MCF7 breast): 15.8 µM | TGI (MCF7 breast): > 100 µM | GI50 (OVCAR-3 ovarian): 5.66 µM | TGI (OVCAR-3 ovarian): 19 µM | GI50 (UACC-62 melanoma): 3.96 µM | TGI (UACC-62 melanoma): 18 µM | GI50 (786-0 renal): 3.78 µM | TGI (786-0 renal): 15.5 µM | GI50 (K-562 leukemia): 2.96 µM | TGI (K-562 leukemia): 15.9 µM | GI50 (SN12C renal): 10 µM | TGI (SN12C renal): > 100 µM | GI50 (SK-OV-3 ovarian): 17.2 µM | TGI (SK-OV-3 ovarian): > 100 µM | GI50 (CCRF-CEM leukemia): 7.69 µM | TGI (CCRF-CEM leukemia): > 100 µM | GI50 (SNB-75 CNS): 2.78 µM | TGI (SNB-75 CNS): 35.9 µM | GI50 (PC-3 prostate): 4.41 µM | TGI (PC-3 prostate): 68.2 µM | GI50 (HOP-62 NSCLC): 10.4 µM | TGI (HOP-62 NSCLC): 41.5 µM | GI50 (NCI-H460 lung): 4.27 µM | TGI (NCI-H460 lung): 15.8 µM | GI50 (HOP-92 NSCLC): 10.2 µM | TGI (HOP-92 NSCLC): 32.6 µM | GI50 (HCC-2998 colon): 4.29 µM | TGI (HCC-2998 colon): 17.8 µM | GI50 (RXF 393 renal): 24.1 µM | TGI (RXF 393 renal): > 100 µM | GI50 (DU-145 prostate): 4.87 µM | TGI (DU-145 prostate): 19.2 µM | GI50 (MOLT-4 leukemia): 2.75 µM | TGI (MOLT-4 leukemia): 32.1 µM | GI50 (A549 NSCLC): 4.84 µM | TGI (A549 NSCLC): 27 µM | GI50 (NCI-H226 lung): 19 µM | TGI (NCI-H226 lung): 49.5 µM | GI50 (SF-539 CNS): 3.38 µM | TGI (SF-539 CNS): 18.6 µM | GI50 (MALME-3M melanoma): 3.45 µM | TGI (MALME-3M melanoma): 13.4 µM | GI50 (NCI-H23 lung): 10.9 µM | TGI (NCI-H23 lung): 55.3 µM | GI50 (TK-10 renal): 4.22 µM | TGI (TK-10 renal): 42.3 µM | GI50 (HCT-15 colon): 3.96 µM | TGI (HCT-15 colon): 23.5 µM | GI50 (HS 578T breast): 12.1 µM | TGI (HS 578T breast): 57.1 µM | GI50 (IGROV1 ovarian): 3.75 µM | TGI (IGROV1 ovarian): 18 µM | GI50 (OVCAR-5 ovarian): 22.7 µM | TGI (OVCAR-5 ovarian): 78.3 µM | GI50 (CAKI-1 renal): 1.52 µM | TGI (CAKI-1 renal): 5.93 µM | GI50 (RPMI-8226 leukemia): 9.61 µM | TGI (RPMI-8226 leukemia): > 100 µM | GI50 (HT29 colon): 23 µM | TGI (HT29 colon): 65.8 µM | GI50 (MDA-MB-231 breast): 4.06 µM | TGI (MDA-MB-231 breast): 27.8 µM | GI50 (SR leukemia): 3.32 µM | TGI (SR leukemia): 38.3 µM | GI50 (SF-268 CNS): 4.94 µM | TGI (SF-268 CNS): 29.4 µM | GI50 (EKVX NSCLC): 3.66 µM | TGI (EKVX NSCLC): 20.5 µM | GI50 (HCT-116 colon): 9.23 µM | TGI (HCT-116 colon): 24 µM | GI50 (M14 melanoma): 5.01 µM | TGI (M14 melanoma): 23.4 µM | GI50 (UACC-257 melanoma): 4.86 µM | TGI (UACC-257 melanoma): 34.3 µM | GI50 (SK-MEL-2 melanoma): 15.3 µM | TGI (SK-MEL-2 melanoma): 46 µM | GI50 (SNB-19 CNS): 20.4 µM | TGI (SNB-19 CNS): > 100 µM | GI50 (SW-620 colon): 5.86 µM | TGI (SW-620 colon): 19.5 µM | GI50 (ACHN renal): 2.46 µM | TGI (ACHN renal): 15.6 µM | GI50 (OVCAR-4 ovarian): 8.64 µM | TGI (OVCAR-4 ovarian): > 100 µM | GI50 (KM12 colon): 2.94 µM | TGI (KM12 colon): 10 µM | GI50 (SF-295 CNS): 2.13 µM | TGI (SF-295 CNS): 6.29 µM | GI50 (LOX IMVI melanoma): 8.25 µM | TGI (LOX IMVI melanoma): 21.9 µM | GI50 (SK-MEL-28 melanoma): 14.1 µM | TGI (SK-MEL-28 melanoma): > 100 µM | GI50 (U251 CNS): 4.83 µM | TGI (U251 CNS): 23.9 µM | GI50 (OVCAR-8 ovarian): 6.49 µM | TGI (OVCAR-8 ovarian): 56.7 µM

COc1cccc(/C=N/NC(=O)CSCC(=O)N/N=C/c2cccc(OC)c2OC)c1OC
TGI (COLO 205 colon): > 100 µM | TGI (MDA-MB-435): > 100 µM | TGI (HL-60(TB) leukemia): > 100 µM | TGI (T-47D breast): > 100 µM | TGI (SK-MEL-5 melanoma): > 100 µM | TGI (A498 renal): > 100 µM | TGI (NCI-H522 lung): > 100 µM | TGI (UO-31 renal): > 100 µM | TGI (NCI/ADR-RES ovarian): > 100 µM | TGI (MCF7 breast): > 100 µM | TGI (OVCAR-3 ovarian): > 100 µM | TGI (UACC-62 melanoma): > 100 µM | TGI (786-0 renal): > 100 µM | TGI (K-562 leukemia): > 100 µM | TGI (SN12C renal): > 100 µM | TGI (SK-OV-3 ovarian): > 100 µM | TGI (SNB-75 CNS): > 100 µM | TGI (PC-3 prostate): > 100 µM | TGI (HOP-62 NSCLC): > 100 µM | TGI (NCI-H460 lung): > 100 µM | TGI (HOP-92 NSCLC): > 100 µM | TGI (HCC-2998 colon): > 100 µM | TGI (RXF 393 renal): > 100 µM | TGI (DU-145 prostate): > 100 µM | TGI (MOLT-4 leukemia): > 100 µM | TGI (A549 NSCLC): > 100 µM | TGI (NCI-H226 lung): > 100 µM | TGI (SF-539 CNS): > 100 µM | TGI (MALME-3M melanoma): > 100 µM | TGI (NCI-H23 lung): > 100 µM | TGI (TK-10 renal): > 100 µM | TGI (HCT-15 colon): > 100 µM | TGI (HS 578T breast): > 100 µM | TGI (IGROV1 ovarian): > 100 µM | TGI (OVCAR-5 ovarian): > 100 µM | TGI (CAKI-1 renal): > 100 µM | TGI (RPMI-8226 leukemia): > 100 µM | TGI (HT29 colon): > 100 µM | TGI (MDA-MB-231 breast): > 100 µM | TGI (SR leukemia): > 100 µM | TGI (SF-268 CNS): > 100 µM | TGI (EKVX NSCLC): > 100 µM | TGI (HCT-116 colon): > 100 µM | TGI (M14 melanoma): > 100 µM | TGI (UACC-257 melanoma): > 100 µM | TGI (SK-MEL-2 melanoma): > 100 µM | TGI (SNB-19 CNS): > 100 µM | TGI (SW-620 colon): > 100 µM | TGI (ACHN renal): > 100 µM | TGI (OVCAR-4 ovarian): > 100 µM | TGI (KM12 colon): > 100 µM | TGI (SF-295 CNS): > 100 µM | TGI (SK-MEL-28 melanoma): > 100 µM | TGI (U251 CNS): > 100 µM | TGI (OVCAR-8 ovarian): > 100 µM
